Assay results published in patent US10975101B2, “Ultra-potent vinca alkaloids: added molecular complexity further disrupts the tublin dimer-dimer interface” (priority 2016, dated 2021).
“And” between values parts separate entries of the source, which are not always exact repeats. Equal entries are not always repeated. Where two headings read alike, the source gives them in different places.

Experiments:
[1] = system: HCT116 (human colorectal carcinoma) cells; conditions: previously reported (footnote a, Barker et al. 2013) or background art table, cited from earlier work
[2] = system: HCT116/VM46 (a vinblastine-resistant strain of HCT116) cells; conditions: previously reported (footnote a, Barker et al. 2013) or background art table, cited from earlier work
[3] = system: L1210 (mouse lymphocytic leukemia) cells; conditions: previously reported in Barker et al., ACS Med. Chem. Lett. 2013, 4, 985; cited from earlier work
[4] = system: L1210 (mouse lymphocytic leukemia) cells; assay: Cell growth inhibition assay, L1210; format: cell-based; conditions: 72 hours incubation, phosphatase assay
How it was run: (§1)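 Cells at 30000 cells/mL in DMEM/10% FBS were preincubated 24 h, then exposed to compound at six concentrations (0–1000 or 0–10000 nM) for 72 h at 37 °C. Viability was read by acid phosphatase (pH 5.5, 5 min L1210, 15 min HCT lines) at 405 nm; IC50 is the mean of 4–36 determinations.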

[5] = system: HCT116 (human colorectal carcinoma) cells; assay: cells; format: cell-based
How it was run: as §1

[6] = system: HCT116/VM46 (a vinblastine-resistant strain of HCT116) cells; assay: Cell growth inhibition assay, HCT116/VM46; format: cell-based, human; conditions: for IC50: 72 hours incubation, phosphatase assay, Pgp-overexpressing resistant line; for increase in potency relative to vinblastine, HCT116/VM46: resistant line
How it was run: as §1

tubulin = assay: BODIPY-vinblastine/tubulin competitive displacement assay; format: binding; conditions: tubulin 0.91 μM, BODIPY-VBL 1.8 μM, vinblastine analogue 18 μM, 37° C.; average of 4 measurements ± SD
Protocol: As a consequence, the commercially available BODIPY-vinblastine fluorescent probe was used to assess tubulin binding and develop its use in a direct competitive binding assay.^15 [(a) Jiang et al., Cancer Res. 1998, 58, 5389; (b) Zhang et al., PloS one 2009, 4, e4881; (c) Rai et al., PloS one 2012, 7, e44311 and (d) Rashid et al., Biochemistry 2015, 54, 2149.]
In carrying out this study, tubulin (0.1 mg/mL, 0.91 μM) was incubated with BODIPY-vinblastine (BODIPY-VBL, 1.8 μM) and a vinblastine analogue (18 μM) at 37° C. in PEM buffer containing 850 μM GTP. The BODIPY-VBL fluorescence intensity (FI) (ex: 480 nm, em: 514 nm) of 100 μL aliquots from each incubation were measured in a fluorescence micro-plate reader at 37° C. Control studies were performed with BODIPY-VBL (control 1) in the absence of a competitive ligand (maximum FI enhancement due to tubulin binding) and (control 2) in the absence of tubulin (no FI enhancement due to tubulin binding). % BODIPY-VBL displacement was calculated by the formula (control 2 FI−experiment FI)/(control 2 FI−control 1 FI)×100. Reported values are the average 4 measurements±the standard deviation.
100 μL of 1 mg/mL tubulin in PEM and 25 μL of 72 μM BODIPY-VBL in DMSO were added to 850 μL of buffer (PEM+1 mM GTP). The solution was incubated at 37° C. for 15 minutes, after which 25 μL of 720 μM competitive ligand in DMSO was added. The solution was incubated for an additional 60 minutes at 37° C., after which 100 μL aliquots of each incubation were transferred into the wells of a 96-well plate (warmed to 37° C. in the plate reader). The BODIPY-vinblastine fluorescence intensity was measured (Ex 480 nm, Em 514 nm, Cutoff 495 nm) at 37° C. Control measurements were performed with BODIPY-VBL (control 1) in the absence of a competitive ligand (maximum FI enhancement due to tubulin binding) and (control 2) in the absence of tubulin (no FI enhancement due to tubulin binding). % BODIPY-VBL displacement was calculated by the formula (Control 2 FI−Experiment FI)/(Control 2 FI−Control 1 FI)×100. PEM: 80 mM PIPES-K pH 6.8, 2 mM MgSO4, 0.5 mM EGTA pH 6.8.

[7] = system: vinblastine sensitive tumor cell lines (L1210 and HCT116); assay: Cell growth inhibition, vinblastine-sensitive lines stated together; format: cell-based; conditions: cell growth inhibition; for increase in potency relative to vinblastine: vinblastine-sensitive lines
Protocol: Compounds were tested for their cell growth inhibition of L1210 (ATCC no. CCL-219, mouse lymphocytic leukemia) cells, HCT116 (ATCC no. CCL-247, human colorectal carcinoma) cells, and HCT116/VM46 (a vinblastine-resistant strain of HCT116) cells in culture. A population of cells (>1×10^6 cells/mL as determined with a hemocytometer) was diluted with an appropriate amount of Dulbecco's Modified Eagle Medium (DMEM, Gibco) containing 10% fetal bovine serum (FBS, Gibco) to a final concentration of 30000 cells/mL.
To each well of a 96-well plate (Corning Costar), 100 μL of the cell media solution was added with a multichannel pipet. The cultures were incubated at 37° C. in an atmosphere of 5% CO2 and 95% humidified air for 24 hours. The test compounds were added to the plate as follows: test substances were diluted in DMSO to a concentration of 1 mM and 10-fold serial dilutions were performed on a separate 96-well plate. Fresh culture medium (100 μL) was added to each well of cells to constitute 200 μL of medium per well followed by 2 μL of each test agent. Compounds were tested in duplicate (n=2-18 times) at six concentrations between 0-1000 nM or 0-10000 nM. Following addition, cultures were incubated for an additional 72 hours.
A phosphatase assay was used to establish the IC50 values as follows: the media in each cell was removed and 100 μL of phosphatase solution (100 mg phosphatase substrate in 30 mL of 0.1 M NaOAc, pH 5.5, 0.1% Triton X-100 buffer) was added to each well. The plates were incubated at 37° C. for either 5 minutes (L1210) or 15 minutes (HCT116 and HCT116/VM46). After the given incubation time, 50 μL of 0.1 N NaOH was added to each well and the absorption at 405 nm was determined using a 96 well plate reader. As the absorption is directly proportional to the number of living cells, the IC50 values were calculated and the reported values represent of the average of 4-36 determinations (SD±10%).

[8] = 72 hours incubation, phosphatase assay, read-out: IC50, HCT116
[9] = listed beside % displacement in second TABLE 5, read-out: IC50 (nM, HCT116)

SMILES | IC50 [1] | IC50 ([1]; listed as drawing 15) | IC50 [2] | IC50 ([2]; listed as drawing 15) | IC50 [3] | IC50 [4] | IC50 [5, 8] | IC50 [5, 9] | IC50 [6] | increase in potency relative to vinblastine, HCT116/VM46 [6] | % displacement of BODIPY-vinblastine bound to tubulin (tubulin) | more potent than the C20′ urea 9 [7] | increase in potency relative to vinblastine [7] | IC50 ([1]; listed as drawing 14)
CC[C@]1(NC(=O)N2Cc3ccccc3C2)C[C@H]2CN(CCc3c([nH]c4ccccc34)[C@@](C(=O)OC)(c3cc4c(cc3OC)N(C)[C@H]3[C@@](O)(C(=O)OC)[C@H](OC(C)=O)[C@]5(CC)C=CCN6CC[C@]43[C@@H]65)C2)C1 [Compound 9] | 0.6 nM | 0.5 nM | 7.5 nM | 4 nM | 0.51 nM | – | – | – | – | – | – | – | – | –
CC[C@]1(NC(=O)N2Cc3ccc(NC(=O)c4cccnn4)cc3C2)C[C@H]2CN(CCc3c([nH]c4ccccc34)[C@@](C(=O)OC)(c3cc4c(cc3OC)N(C)[C@H]3[C@@](O)(C(=O)OC)[C@H](OC(C)=O)[C@]5(CC)C=CCN6CC[C@]43[C@@H]65)C2)C1 [Compound 61] | – | – | – | – | – | 0.059 nM | 0.067 nM | 0.07 nM | 0.87 nM | 700 fold | 100% and 101 ± 4% | 10 fold | 100 fold | –
CC[C@]1(NC(=O)N2Cc3ccc(NC(=O)c4ccncn4)cc3C2)C[C@H]2CN(CCc3c([nH]c4ccccc34)[C@@](C(=O)OC)(c3cc4c(cc3OC)N(C)[C@H]3[C@@](O)(C(=O)OC)[C@H](OC(C)=O)[C@]5(CC)C=CCN6CC[C@]43[C@@H]65)C2)C1 [Compound 58] | – | – | – | – | – | 0.062 nM | 0.074 nM | 0.07 nM | 0.88 nM | 700 fold | 100% and 105 ± 5% | 10 fold | 100 fold | –
CC[C@]1(NC(=O)N2Cc3ccc(OC)cc3C2)C[C@H]2CN(CCc3c([nH]c4ccccc34)[C@@](C(=O)OC)(c3cc4c(cc3OC)N(C)[C@H]3[C@@](O)(C(=O)OC)[C@H](OC(C)=O)[C@]5(CC)C=CCN6CC[C@]43[C@@H]65)C2)C1 [Compound 35] | 0.54 nM | – | 8.6 nM | – | 0.48 nM | – | – | – | – | – | – | – | – | –
CC[C@]1(NC(=O)N2CCCCC2)C[C@H]2CN(CCc3c([nH]c4ccccc34)[C@@](C(=O)OC)(c3cc4c(cc3OC)N(C)[C@H]3[C@@](O)(C(=O)OC)[C@H](OC(C)=O)[C@]5(CC)C=CCN6CC[C@]43[C@@H]65)C2)C1 [Compound 23] | 3.9 nM | – | 50 nM | – | 5.5 nM | – | – | – | – | – | – | – | – | –
CC[C@]1(NC(=O)N2CCCC2)C[C@H]2CN(CCc3c([nH]c4ccccc34)[C@@](C(=O)OC)(c3cc4c(cc3OC)N(C)[C@H]3[C@@](O)(C(=O)OC)[C@H](OC(C)=O)[C@]5(CC)C=CCN6CC[C@]43[C@@H]65)C2)C1 [Compound 8] | 0.72 nM | – | 50 nM | – | 0.7 nM | – | – | – | – | – | – | – | – | 0.7 nM
